The source of these data is article PMC3462190, “A Peptidic Unconjugated GRP78/BiP Ligand Modulates the Unfolded Protein Response and Induces Prostate Cancer Cell Death” (PLoS ONE, 2012).

Where no end group is shown, it is not given here.

The subject of assay [1] is unfolded protein response in 22Rv.1 cells. Put plainly: UPR modulation, Western blot / PCR in 22Rv.1 cells. In kind it is cell-based. On the procedure:
Unless otherwise stated, stable transfection was carried out in 22Rv.1 or BPH-1 cells with 10 µg of plasmid DNA using FuGene 6™ (Roche Diagnostics Mannheim, Germany) Stably transfected 22Rv.1 cells were selected with 0.8 mg/ml while BPH-1 cell clones were selected with 1.2 mg/ml G418. LNCaP, PC3, DU145, PNT-2 and RWPE-1 cell clones were selected with 1 mg/ml G418. Specific downregulation of GRP78 expression was achieved by transfecting siRNA-duplexes (GRP78∶5′-[…]-3′) twice in 72 h using HiPerfect™ (Qiagen Hilden, Germany). siRNA against GFP (5′-[…]-3′) was used as a control. Western blot analysis was performed as previously described.
Figure 3 The Bag-1 peptide modulates the UPR and sensitizes 22Rv.1 cells to ER-stress. A. UPR modulation upon Bag-1 peptide overexpression. Pooled clones of 22Rv.1 cells transfected with pcDNA3.1-HA-Bag-1 68 amino acid peptide or an empty expression vector were treated with 300 nM thapsigargin (TG) for the indicated time points. Cells were lysed and subjected to Western blot analysis using the indicated antibodies or phospho-specific antibodies. B. The Bag-1 peptide sensitizes 22Rv.1 cells to ER-stress induced apoptosis. Pooled clones of 22Rv.1 transfected with the Bag-1 peptide or the empty expression vector were treated with thapsigargin (TG) or glucose-starved (GS) for 24 h. The cells were lysed and subjected to Western blot analysis using anti-PARP and caspase 4 specific antibodies. Anti-HA antibody was used to detect the HA-Bag-1 peptide. […] C. […] Pooled clones of 22Rv.1 expressing HA-tagged Bag-1 peptide or an empty expression vector were transfected with GRP78/BiP siRNA or control GFP siRNA. The cells were lysed and Western blot was carried out with anti-PARP, anti-GRP78 and anti-HA antibodies. β-actin antibody was used to determine the level of protein loaded on the gel.
(§1) A. Real time PCR analysis of ATF6 gene expression following thapsigargin (300 nM) treatment for the indicated time points in 22Rv.1 cell clones with empty vector control (open bars) and peptide-expressing clones (filled bars). The RNA was extracted using PeqGold RNA pure (PeqLab, Germany) kit according to manufacturer’s instructions. For gene expression analysis, the following primers were used: Rib36 forward 5′-[…]-3′; reverse 5′-CCGGATATGAGGCAGCAG-3′; ATF6 forward 5′-[…]-3′; reverse 5′-[…]-3′. Each bar represents the mean of three independent experiments ± SEM. *p<0.05. B. Western blot analysis of ATF6 and its cleaved product (cATF6) in LNCaP cells stably expressing the empty vector control or the Bag-1 peptide. Anti-ATF6 specific antibody and an anti-HA specific antibody were used for the Western blot. β-actin antibody was used to determine equal loading control. Mouse monoclonal anti-ATF6 antibody was purchased from Imgenex (Hamburg, Germany), mouse monoclonal anti-HA antibody (HA.11 clone 16B12) was purchased from Covance (Munich, Germany) and anti-β-actin antibody was purchased from Abcam (Cambridge, UK). (TIF) Click here for additional data file.
Supplementary file pone.0045690.s004.tif: Figure S4 The Bag-1 peptide induces GCN2 phosphorylation. 22Rv.1 cells stably expressing the empty vector control or the Bag-1 peptide were treated with thapsigargin (300 nM) for 16 h and subjected to Western blot analysis using anti-phospho-GCN2, GCN2 and HA-specific antibodies. The filters used in this experiment for the GCN2 signals are the same filters used in Figure 3A. The HA-Bag-1 peptide and the β-actin signals are therefore identical to that of Figure 3A. (TIF) Click here for additional data file.
For orientation: Immunoblotting shows a protein as a band on a membrane.

The subject of assay [2] is LNCaP prostate cancer cells. The assay can be described thus: ATF6 Western blot in LNCaP cells. In kind it is cell-based. As to conditions: thapsigargin. On the procedure:
as §1

The next assay deals with 22Rv.1 cells. The assay can be described thus: Clonogenic assay. As to conditions: neomycin selection, colonies quantified; mean ± SEM of at least three independent experiments. In kind it is cell-based. From the text:
Figure 5 An N-terminal unfolded fragment of the Bag-1 peptide is sufficient to reduce tumor cell growth. A. Schematic diagram of the Bag-1 peptide and its deletion mutants. The ubiquitin-like domain is represented in blue and the BAG domain in red. The numbers refer to the amino acid positions of the different domains. The amino acid residues are numbered following the numbering for Bag-1L. B. Prediction of the secondary structure of the Bag-1 peptide, showing an N-terminal β-hairpin from the ubiquitin-like domain (blue) and a C-terminal α-helix from the BAG domain (red). C. Normalized circular dichroism spectra of the Bag-1 peptides. 30 µM of the Bag-1 peptide were measured in 20 mM KHPO4 buffer, pH 6.8 (black line). Its α-helical content was estimated to be approximately 25% by deconvolution of the spectra (red line). 12 µM of the N-term peptide (green line) and 11 µM of C-term (blue line) were measured under the same conditions. D. ^1H^15N-HSQC NMR spectrum of ^15N-labeled Bag-1 peptide (202–269) in 20 mm KHPO4 buffer, pH 6.8, at 23°C. […] The Hδ and Hε side chain signals of asparagine and glutamine are connected by thin lines. E. The N-terminal region of the Bag-1 peptide is important for GRP78 binding. 400 µg of 22Rv.1 cell lysate were incubated with glutathione-agarose beads carrying 15 µg GST-N-term peptide (lane 2), GST-C-term peptide (lane 3), GST-ΔUbi peptide (lane 4), GST-Bag-1(202–269) peptide (lane 5) and GST (lane 6). The beads were washed and the bound proteins were separated by 10% SDS-PAGE and subjected to Western blotting using antibodies directed against GRP78 or GST. […] F. Clonogenic assay of the Bag-1 peptides expressed in 22Rv.1 cells. Cells transfected with the indicated constructs were selected in medium containing neomycin and the colonies formed were quantified. Shown are the mean value ±SEM of at least three independent experiments using three different plasmid preparations (*p<0.05). […] Six-week old athymic nude mice were injected subcutaneously on both flanks with 5×10^6 cells of each stable clone. Tumor size was measured once per week using a caliper and expressed as tumor volume in mm^3. Shown are the tumor volumes of clones transfected with the N-terminal peptide (G), the C-terminal peptide (H) and the ΔUbi peptide (I). Each point represents the mean volume and standard deviation of at least 5 to 10 tumors.
(§2) Figure 6 Selectivity of action of the Bag-1 peptide. A Amino acid sequence of the 19mer peptide and its deletion mutants. B GST pull-down assay performed incubating 400 µg of 22Rv.1 cell lysate and 25 µg of GST-fused deletion mutants of the 19mer peptide. After the pull-down experiment, Western blots were carried out with anti-GRP78/BiP and GST antibodies. C. Fluorescence polarization (FP) assays with a 10 nM FITC-labeled 7-mer Bag-1 peptide and dilutions of the GST-fused substrate binding domain of GRP78 in 60 µl of Tris-GSH buffer (50 mM Tris, 10 mM reduced glutathione and 0.1% BSA, pH 8.0). Triplicate samples were measured after 5 h of incubation at room temperature with an Infinite F-200 reader (Tecan) with excitation at 490 nm and emission at 535 nm. Binding constants were determined from three independent experiments using non-linear regression in Sigma Plot 10.0. D. Competition assays with a complex of 10 nM of FITC-labeled Bag-1 7-mer peptide and 0.75 mg/ml GST-fused GRP78 substrate binding domain was measured against a dilution series from 100 µM to 0.1 nM of wild-type Bag-1 7-mer peptide (filled line) or triple mutant peptide (dotted line) in 40 µl of Tris-GSH buffer. FITC-peptide and the FITC-peptide-protein complex were used as controls. Fluorescence polarization was determined as described above and IC50 values were determined in Sigma Plot. […]

Assay [3] deals with T1, GST-fused GRP78 substrate binding domain (Homo sapiens, UniProt P11021).
T1 construct: GRP78-SBD (GRP78 409–651); made in house
Put plainly: Fluorescence polarization competition assay. As to conditions: displacement of 10 nM FITC-labeled Bag-1 7-mer from 0.75 mg/ml GST-GRP78 SBD; competitor 100 µM to 0.1 nM, Tris-GSH buffer. On the procedure:
Fluorescence polarization assays were carried out using an Infinite F-200 reader (Tecan) with excitation at 490 nm and emission at 535 nm.
as §2, with “[…] The colonies were stained” for “FITC-peptide”, “quantified.” for “the FITC-peptide-protein complex were used as controls. Fluorescence polarization was determined as described above and IC50 values were determined in Sigma Plot.”

Assay [4] deals with T2, GST-fused GRP78-SBD (GRP78 409-651) (UniProt P11021 409-651).
T2 construct: Used on beads in pull-downs and in solution (GST kept) in fluorescence polarisation; also called GST-GRP78(SBD); source: bacterially purified GST fusion (pGEX4T.1)
Put plainly: fluorescence polarisation; competition: complex of 10 nM FITC-labeled 7-mer peptide and 0.75 mg/ml GST-fused GRP78 SBD against 100 µM to 0.1 nM unlabeled peptide in Tris-GSH buffer. Particulars: both partners purified.

Assay [5] concerns the target T2, GST-fused GRP78-SBD (GRP78 409-651). Put plainly: fluorescence polarisation; 10 nM FITC-labeled 7-mer peptide with dilutions of GST-fused GRP78 SBD in Tris-GSH buffer (50 mM Tris, 10 mM reduced glutathione, 0.1% BSA, pH 8.0), 5 h at room temperature. As to conditions: both partners purified. (In general: Polarisation of emitted light reports the rotation of a fluorescent probe.)

T2 sequence (P11021 409-651): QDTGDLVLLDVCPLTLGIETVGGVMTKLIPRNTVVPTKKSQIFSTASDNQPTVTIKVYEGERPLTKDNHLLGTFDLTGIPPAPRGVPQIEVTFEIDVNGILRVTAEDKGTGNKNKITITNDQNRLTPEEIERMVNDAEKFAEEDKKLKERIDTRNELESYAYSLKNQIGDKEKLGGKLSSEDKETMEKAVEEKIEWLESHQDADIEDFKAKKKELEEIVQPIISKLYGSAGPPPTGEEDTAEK
T1 sequence (P11021 409-651): as above

`C/C=C(/C)C(=O)O[C@H]1C(C)=C2[C@H]([C@@H]1OC(=O)CCCCCCC)[C@@](C)(OC(C)=O)C[C@H](OC(=O)CCC)[C@@]1(O)[C@H]2OC(=O)[C@@]1(C)O` [thapsigargin, reference compound]: in assay [1] (22Rv.1 cells, thapsigargin 300 nM), the ATF6 expression result is “enhanced the expression of this gene”. Further, in assay [1] (22Rv.1 vector control cells, 300 nM thapsigargin), the UPR activation entry was “all three arms of the UPR were activated”. Besides, the “ATF6 expression (protein level)” value in assay [2] was “also seen in LNCaP prostate cancer cells at the protein level”.

Regarding “19-mer mutant: 202–220 amino acid peptide with mutated core (VML exchanged with alanine residues) (TPLSALGIQDGCRAAAIGK; also: HA tag, end not given here)”, the “22Rv.1 growth in clonogenic assay” value in the assay with 22Rv.1 cells was “significantly reduced the ability of the 19 amino acid sequence to inhibit 22Rv.1 cell growth”.

Usually IC50 stands for the concentration at which inhibition is half-maximal. On to RAAAIGK [RAAAIGK], for which the IC50 in assay [3] is > 100 µM.

B1: triple mutant Bag-1 7-mer peptide (214RAAAIGK220) (peptide)
chain: RAAAIGK
On to B1, for which, in assay [4], the IC50 was > 100 µM.

B2: FITC-labeled 7-mer Bag-1 peptide (214RVMLIGK220) (peptide)
peptide: RVMLIGK
modifications: also: FITC label, place not given here
notes: core peptide of Bag-1, residues 214-220 on Bag-1L numbering; also called FITC-peptide
What is called Kd is the concentration at which binding is half-saturated. A lower Kd goes with tighter binding. B2 gave a Kd in assay [5] of 5.7 ± 0.8 µM.

B3: wild-type Bag-1 7-mer peptide (214RVMLIGK220), unlabeled (peptide)
peptide: RVMLIGK
notes: core peptide of Bag-1, residues 214-220 on Bag-1L numbering; also called seven amino acid core peptide
With B3, the IC50 in assay [4] worked out at 2.6 ± 0.5 µM.
